This passage reports Ki, IC90 and melting point results from patent USRE37781E1, “Substituted cyclic carbonyls and derivatives thereof useful as retroviral protease inhibitors” (DuPont Pharmaceuticals Company, priority 1991, dated 2002).

SMILES strings stand for the structures. Values after ≈ are worked out from the molar mass of the structure shown.

For the first data set, the target named is single-chain tethered dimer of HIV protease (Human immunodeficiency virus 1, UniProt P04585). The data set can be described thus: biochemical. The data set is classed as biochemical. Further details: fused on or other part: A second copy of the same protease unit is joined to the first by a short peptide tether, giving one polypeptide. As to conditions: read-out: HPLC K1; Table 2d; class symbols.
On to `CONC(=O)c1ccc(CN2C(=O)N(Cc3ccc(C(=O)NOC)cc3)C(Cc3ccccc3)C(O)C(O)C2Cc2ccccc2)cc1` (centres unmarked) [10S], for which the Ki was under 10 nM.
The same measure, in the same setting: as for `O=C1N(Cc2ccc(CO)cc2)C(Cc2ccccc2)C(O)C(O)C(Cc2ccccc2)N1Cc1cccc(O)c1` (centres unmarked) [10o], the figure is under 10 nM; as for `N=C(N)c1cccc(CN2C(=O)N(Cc3cccc(C(=N)N)c3)C(Cc3ccccc3)C(O)C(O)C2Cc2ccccc2)c1` (centres unmarked) [11A], 10 to 1000 nM.
With `CNC(=O)c1cccc(CN2C(=O)N(Cc3cccc(C(=O)OC)c3)C(Cc3ccccc3)C(O)C(O)C2Cc2ccccc2)c1` (centres unmarked) [11G], the Ki is under 10 nM.
Same read-out and setting: as for `O=C1N(Cc2ccccc2)C(Cc2ccccc2)C(O)C(O)C(Cc2ccccc2)N1Cc1cccc(O)c1` (centres unmarked) [11I], the figure is under 10 nM; as for `CNC(=O)c1cccc(CN2C(=O)N(Cc3cccc(CO)c3)C(Cc3ccccc3)C(O)C(O)C2Cc2ccccc2)c1` (centres unmarked) [11M], under 10 nM.
Still for that read-out and setting: with `Nc1cccc(CN2C(=O)N(Cc3cccc(O)c3)C(Cc3ccccc3)C(O)C(O)C2Cc2ccccc2)c1` (centres unmarked) [11Q] the figure was under 10 nM; with `CCNC(=O)c1cccc(CN2C(=O)N(Cc3cccc(C(=O)NCC)c3)C(Cc3ccccc3)C(O)C(O)C2Cc2ccccc2)c1` (centres unmarked) [11R], under 10 nM; with `O=C1N(Cc2cccc(NS(=O)(=O)C(F)(F)F)c2)C(Cc2ccccc2)C(O)C(O)C(Cc2ccccc2)N1Cc1cccc(NS(=O)(=O)C(F)(F)F)c1` (centres unmarked) [15B], under 10 nM.
Same read-out and setting: as for `CNc1cccc(CN2C(=O)N(Cc3cccc(NC)c3)C(Cc3ccccc3)C(O)C(O)C2Cc2ccccc2)c1` (centres unmarked) [15D], the figure is under 10 nM; as for `O=C(Nc1cccc(CN2C(=O)N(Cc3cccc(NC(=O)OCc4ccccc4)c3)C(Cc3ccccc3)C(O)C(O)C2Cc2ccccc2)c1)OCc1ccccc1` (centres unmarked) [15E], 10 to 1000 nM; as for `CN(C=O)c1cccc(CN2C(=O)N(Cc3cccc(N(C)C=O)c3)C(Cc3ccccc3)C(O)C(O)C2Cc2ccccc2)c1` (centres unmarked) [15F], 10 to 1000 nM.
Take `CN(C)c1cccc(CN2C(=O)N(Cc3cccc(N(C)C)c3)C(Cc3ccccc3)C(O)C(O)C2Cc2ccccc2)c1` (centres unmarked) [15I]: the Ki is under 10 nM.
`CNC(=O)Nc1cccc(CN2C(=O)N(Cc3cccc(NC(=O)NC)c3)C(Cc3ccccc3)C(O)C(O)C2Cc2ccccc2)c1` (centres unmarked) [15L]: the Ki was under 10 nM.

Still in this data set, the particulars now being: read-out: K4 HPLC; Table 2e.
Take `CCCCCC1C(O)C(O)C(CCCCC)N(Cc2ccccc2)C(=O)N1Cc1ccccc1` (centres unmarked) [Example 16AH]: the Ki fell in the range of 10 to 1000 nM.
Regarding `CCCCCCC1C(O)C(O)C(CCCCCC)N(Cc2ccccc2)C(=O)N1Cc1ccccc1` (centres unmarked) [Example 16AI], the Ki was 10 to 1000 nM.
Same read-out and setting: as for `CC1C(O)C(O)C(C)N(Cc2ccc3ccccc3c2)C(=O)N1Cc1ccc2ccccc2c1` (centres unmarked) [Example 16H], the figure is over 1000 nM.

Another data set relates to HIV-1 (RF) in MT-2 cells. The data set can be described thus: microbe, parasite or virus in culture. The data set is classed as cell-based. As to conditions: Human immunodeficiency virus 1, MT2, 48 h, Table 2d; HIV RNA assay; read-out: IC90. The method in brief: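 Read-out: gag and pol viral RNA captured by 5′-biotinylated oligonucleotides on streptavidin-coated wells, detected with alkaline phosphatase-linked reporter oligonucleotides, calibrated against BH10 in vitro transcripts. Virus stocks (RF, MN, IIIB) come from H9 cultures; MT-2 host cells kept in RPMI 1640, 5% FCS.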
With `O=C1N(Cc2cccc(-c3cc[nH]n3)c2)C(Cc2ccccc2)C(O)C(O)C(Cc2ccccc2)N1Cc1cccc(-c2cc[nH]n2)c1` (centres unmarked) [Example 15YL], the concentration for an effect of 90% (IC90) is under 10 µg/mL.

The data set is the same for the next values; noted with them: Human immunodeficiency virus 1, MT2, 48 h, Table 2d; class symbols; read-out: IC90.
On to `CONC(=O)c1ccc(CN2C(=O)N(Cc3ccc(C(=O)NOC)cc3)C(Cc3ccccc3)C(O)C(O)C2Cc2ccccc2)cc1` (centres unmarked) [10S], for which the IC90 was under 10 µg/mL.
Same read-out and setting: as for `O=C1N(Cc2ccc(CO)cc2)C(Cc2ccccc2)C(O)C(O)C(Cc2ccccc2)N1Cc1cccc(O)c1` (centres unmarked) [10o], the figure is under 10 µg/mL; as for `N=C(N)c1cccc(CN2C(=O)N(Cc3cccc(C(=N)N)c3)C(Cc3ccccc3)C(O)C(O)C2Cc2ccccc2)c1` (centres unmarked) [11A], over 100 µg/mL; as for `CNC(=O)c1cccc(CN2C(=O)N(Cc3cccc(C(=O)OC)c3)C(Cc3ccccc3)C(O)C(O)C2Cc2ccccc2)c1` (centres unmarked) [11G], under 10 µg/mL.
Same read-out and setting: as for `O=C1N(Cc2ccccc2)C(Cc2ccccc2)C(O)C(O)C(Cc2ccccc2)N1Cc1cccc(O)c1` (centres unmarked) [11I], the figure is under 10 µg/mL.
On the same count and under the same terms, as for `CNC(=O)c1cccc(CN2C(=O)N(Cc3cccc(CO)c3)C(Cc3ccccc3)C(O)C(O)C2Cc2ccccc2)c1` (centres unmarked) [11M], the figure is under 10 µg/mL; as for `Nc1cccc(CN2C(=O)N(Cc3cccc(O)c3)C(Cc3ccccc3)C(O)C(O)C2Cc2ccccc2)c1` (centres unmarked) [11Q], under 10 µg/mL; as for `CCNC(=O)c1cccc(CN2C(=O)N(Cc3cccc(C(=O)NCC)c3)C(Cc3ccccc3)C(O)C(O)C2Cc2ccccc2)c1` (centres unmarked) [11R], under 10 µg/mL.
Take `O=C1N(Cc2cccc(NS(=O)(=O)C(F)(F)F)c2)C(Cc2ccccc2)C(O)C(O)C(Cc2ccccc2)N1Cc1cccc(NS(=O)(=O)C(F)(F)F)c1` (centres unmarked) [15B]: the IC90 was in the range of 10 to 100 µg/mL (≈ 12.5 to 125 µM).
The same measure, in the same setting: as for `CNc1cccc(CN2C(=O)N(Cc3cccc(NC)c3)C(Cc3ccccc3)C(O)C(O)C2Cc2ccccc2)c1` (centres unmarked) [15D], the figure is under 10 µg/mL; as for `O=C(Nc1cccc(CN2C(=O)N(Cc3cccc(NC(=O)OCc4ccccc4)c3)C(Cc3ccccc3)C(O)C(O)C2Cc2ccccc2)c1)OCc1ccccc1` (centres unmarked) [15E], over 100 µg/mL; as for `CN(C=O)c1cccc(CN2C(=O)N(Cc3cccc(N(C)C=O)c3)C(Cc3ccccc3)C(O)C(O)C2Cc2ccccc2)c1` (centres unmarked) [15F], under 10 µg/mL.
Regarding `CN(C)c1cccc(CN2C(=O)N(Cc3cccc(N(C)C)c3)C(Cc3ccccc3)C(O)C(O)C2Cc2ccccc2)c1` (centres unmarked) [15I], the IC90 was under 10 µg/mL.
Consider `CC(=NO)c1cccc(CN2C(=O)N(Cc3cccc(C(C)=NO)c3)C(Cc3ccccc3)C(O)C(O)C2Cc2ccccc2)c1` (centres unmarked) [Example 9Q], for which the 90% effect concentration (IC90) is under 10 µg/mL.

Staying with this data set, now noted: Human immunodeficiency virus 1, MT2, HIV RNA assay, HIV-1 infected MT-2 cells; class symbols; read-out: IC90.
On to `O=C1N(Cc2cccc3ccccc23)C(Cc2ccccc2)C(O)C(O)C(Cc2ccccc2)N1Cc1cccc2ccccc12` (centres unmarked) [Example 3T], for which the IC90 was over 100 µg/mL.

Tested on in a further data set: not given
Assay: not given
Conditions: not given
Consider `CONC(=O)c1ccc(CN2C(=O)N(Cc3ccc(C(=O)NOC)cc3)C(Cc3ccccc3)C(O)C(O)C2Cc2ccccc2)cc1` (centres unmarked) [10S], for which the melting point lay in the range of 186 to 189 °C.
`O=C1N(Cc2ccc(CO)cc2)C(Cc2ccccc2)C(O)C(O)C(Cc2ccccc2)N1Cc1cccc(O)c1` (centres unmarked) [10o] yielded a melting point of 141 to 144 °C.
Same read-out and setting: as for `N=C(N)c1cccc(CN2C(=O)N(Cc3cccc(C(=N)N)c3)C(Cc3ccccc3)C(O)C(O)C2Cc2ccccc2)c1` (centres unmarked) [11A], the figure is 224 to 226 °C; as for `CNC(=O)c1cccc(CN2C(=O)N(Cc3cccc(C(=O)OC)c3)C(Cc3ccccc3)C(O)C(O)C2Cc2ccccc2)c1` (centres unmarked) [11G], 158 to 161 °C.
On the same count and under the same terms, with `O=C1N(Cc2ccccc2)C(Cc2ccccc2)C(O)C(O)C(Cc2ccccc2)N1Cc1cccc(O)c1` (centres unmarked) [11I] the figure was 189 to 193 °C; with `CNC(=O)c1cccc(CN2C(=O)N(Cc3cccc(CO)c3)C(Cc3ccccc3)C(O)C(O)C2Cc2ccccc2)c1` (centres unmarked) [11M], 107 to 109 °C.
On the same count and under the same terms, with `Nc1cccc(CN2C(=O)N(Cc3cccc(O)c3)C(Cc3ccccc3)C(O)C(O)C2Cc2ccccc2)c1` (centres unmarked) [11Q] the figure was 116 to 120 °C; with `CCNC(=O)c1cccc(CN2C(=O)N(Cc3cccc(C(=O)NCC)c3)C(Cc3ccccc3)C(O)C(O)C2Cc2ccccc2)c1` (centres unmarked) [11R], 135 to 138 °C.
For the compound `O=C1N(Cc2cccc(NS(=O)(=O)C(F)(F)F)c2)C(Cc2ccccc2)C(O)C(O)C(Cc2ccccc2)N1Cc1cccc(NS(=O)(=O)C(F)(F)F)c1` (centres unmarked) [15B], the melting point came out at 141.8 °C.
The same measure, in the same setting: with `CNc1cccc(CN2C(=O)N(Cc3cccc(NC)c3)C(Cc3ccccc3)C(O)C(O)C2Cc2ccccc2)c1` (centres unmarked) [15D] the figure was 180.3 °C.
The same measure, in the same setting: as for `O=C(Nc1cccc(CN2C(=O)N(Cc3cccc(NC(=O)OCc4ccccc4)c3)C(Cc3ccccc3)C(O)C(O)C2Cc2ccccc2)c1)OCc1ccccc1` (centres unmarked) [15E], the figure is 190.7 °C.
The same measure, in the same setting: as for `CN(C=O)c1cccc(CN2C(=O)N(Cc3cccc(N(C)C=O)c3)C(Cc3ccccc3)C(O)C(O)C2Cc2ccccc2)c1` (centres unmarked) [15F], the figure is 82 °C; as for `CN(C)c1cccc(CN2C(=O)N(Cc3cccc(N(C)C)c3)C(Cc3ccccc3)C(O)C(O)C2Cc2ccccc2)c1` (centres unmarked) [15I], 199.9 °C.
Turning to `CNC(=O)Nc1cccc(CN2C(=O)N(Cc3cccc(NC(=O)NC)c3)C(Cc3ccccc3)C(O)C(O)C2Cc2ccccc2)c1` (centres unmarked) [15L], the melting point worked out at 173.7 °C.
In turn, `O=C1N(Cc2cccc3ccccc23)C(Cc2ccccc2)C(O)C(O)C(Cc2ccccc2)N1Cc1cccc2ccccc12` (centres unmarked) [Example 3T] displayed a melting point of 231 to 233 °C.
Still for that read-out and setting: as for `CC(=NO)c1cccc(CN2C(=O)N(Cc3cccc(C(C)=NO)c3)C(Cc3ccccc3)C(O)C(O)C2Cc2ccccc2)c1` (centres unmarked) [Example 9Q], the figure is 200 to 202 °C.
The same measure, in the same setting: with `O=C1N(Cc2cccc(-c3cc[nH]n3)c2)C(Cc2ccccc2)C(O)C(O)C(Cc2ccccc2)N1Cc1cccc(-c2cc[nH]n2)c1` (centres unmarked) [Example 15YL] the figure was 208 to 210 °C; with `CCCCCC1C(O)C(O)C(CCCCC)N(Cc2ccccc2)C(=O)N1Cc1ccccc1` (centres unmarked) [Example 16AH], 94 to 97 °C; with `CCCCCCC1C(O)C(O)C(CCCCCC)N(Cc2ccccc2)C(=O)N1Cc1ccccc1` (centres unmarked) [Example 16AI], 79 to 82 °C.
On the same count and under the same terms, with `CC1C(O)C(O)C(C)N(Cc2ccc3ccccc3c2)C(=O)N1Cc1ccc2ccccc2c1` (centres unmarked) [Example 16H] the figure was 236 to 238 °C.
